In the supplement of paper PMC11208160:

assay: recombinant UMI read abundance after kanamycin selection (control-corrected) (log10(CPM+1)); higher = more efficient recombination; extreme values may be limits of the assay; sequences stand for … in AGTGCAGAGAAAATCGGCCAGTTTTCTCTGCCTGCAGTCCGCATGCCGTGGGACCCCTTGGGTTCTAACCTGTTGCCTAGATTTATGCAGCGGACTGCCTTTCTCCCAAAGTGATAAACCGG…AGGTTGGTTTCACT; site = the 11-nt donor
Procedure, shortened: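 Values are reported as log10(CPM+1), obtained by converting sequencing counts to CPM, averaging replicates and scaling by control-derived factors. The counts came from recombinant UMIs amplified by PCR across the donor–target junction. These UMIs came from a pooled Escherichia coli screen of donor and donor-binding-loop pairs for the IS621 bridge recombinase, plated with IPTG (0.07 mM) plus kanamycin or left unselected, in two replicates each.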
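Note: IS621 bridge recombinase in Escherichia coli cells against a fixed T5 target plasmid.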

Row | Sequence | recombinant UMI read abundance (log10)
1 | GTCATAGCATGGACCGGTTTTCCCGGTAATCCGTATTTGTT (site GTCATAGCTAA) | 2.1
2 | GTCATCGCATGGACCGGTTTTCCCGGTAATCCGTATTTGCC (site GTCATCGCTGG) | 2.35
3 | GTCCCCGCATGGACCGGTTTTCCCGGTAATCCGTATTTGTA (site GTCCCCGCTTA) | 1.13
4 | GTCCCTACATGGACCGGTTTTCCCGGTAATCCGTATTTGAG (site ATCCCTACTCT) | 0.0134
5 | GTCCCTACATGGACCGGTTTTCCCGGTAATCCGTATTTGAG (site CTCCCTACTCT) | 0.0129
6 | GTCCCTACATGGACCGGTTTTCCCGGTAATCCGTATTTGAG (site GTCCCTACTCT) | 0.168
7 | GTCCCTACATGGACCGGTTTTCCCGGTAATCCGTATTTGAG (site TTCCCTACTCT) | 0.00698
8 | GTCGCCACATGGACCGGTTTTCCCGGTAATCCGTATTTGGA (site GTCGCCACTTC) | 0.751
9 | GTCGGCACATGGACCGGTTTTCCCGGTAATCCGTATTTGAC (site GTCGGCACTGT) | 2.04
10 | GTCGGTACATGGACCGGTTTTCCCGGTAATCCGTATTTGAC (site GTAGGTACTGT) | 0.298
11 | GTCGGTACATGGACCGGTTTTCCCGGTAATCCGTATTTGAC (site GTCGGTACTGT) | 1.32
12 | GTCGGTACATGGACCGGTTTTCCCGGTAATCCGTATTTGAC (site GTGGGTACTGT) | 0
13 | GTCGGTACATGGACCGGTTTTCCCGGTAATCCGTATTTGAC (site GTTGGTACTGT) | 0
14 | GTCGTCGCATGGACCGGTTTTCCCGGTAATCCGTATTTGCG (site GTAGTCGCTCG) | 0.0332
15 | GTCGTCGCATGGACCGGTTTTCCCGGTAATCCGTATTTGCG (site GTCGTCGCTCG) | 0.512
16 | GTCGTCGCATGGACCGGTTTTCCCGGTAATCCGTATTTGCG (site GTGGTCGCTCG) | 0.00908
17 | GTCGTCGCATGGACCGGTTTTCCCGGTAATCCGTATTTGCG (site GTTGTCGCTCG) | 0.0186
18 | GTCGTTACATGGACCGGTTTTCCCGGTAATCCGTATTTGGC (site GTCGTTACTGC) | 1.78
19 | GTCTAAACATGGACCGGTTTTCCCGGTAATCCGTATTTGTG (site GTCTAAACTCA) | 1.09
20 | GTCTATACATGGACCGGTTTTCCCGGTAATCCGTATTTGGA (site GTCTATACTTC) | 1.08
21 | GTCTGATCATGGACCGGTTTTCCCGGTAATCCGTATTTGAA (site GTCTGATCTTT) | 1.66
22 | GTGAAAACATGGACCGGTTTTCCCGGTAATCCGTATTTGCT (site GAGAAAACTAG) | 0.918
23 | GTGAAAACATGGACCGGTTTTCCCGGTAATCCGTATTTGCT (site GCGAAAACTAG) | 0
24 | GTGAAAACATGGACCGGTTTTCCCGGTAATCCGTATTTGCT (site GGGAAAACTAG) | 0
25 | GTGAAAACATGGACCGGTTTTCCCGGTAATCCGTATTTGCT (site GTGAAAACTAG) | 1.46
26 | GTGAAACCATGGACCGGTTTTCCCGGTAATCCGTATTTGAT (site GTGAAACCTAT) | 0

Row | Sequence | recombinant UMI read abundance (log10)
27 | GTGAGAACATGGACCGGTTTTCCCGGTAATCCGTATTTGCT (site GTGAGAACTAG) | 2.25
28 | GTGAGGGCATGGACCGGTTTTCCCGGTAATCCGTATTTGAA (site GTGAGGGCTTT) | 1.83
29 | GTGATGGCATGGACCGGTTTTCCCGGTAATCCGTATTTGAT (site GTGATGGCTAT) | 2.31
30 | GTGATTCCATGGACCGGTTTTCCCGGTAATCCGTATTTGAC (site GTGATTCCTGT) | 1.95
31 | GTGCAAGCATGGACCGGTTTTCCCGGTAATCCGTATTTGGT (site GTGCAAGCTAC) | 1.28
32 | GTGCAAGCATGGACCGGTTTTCCCGGTAATCCGTATTTGGT (site GTGCACGCTAC) | 0.00225
33 | GTGCAAGCATGGACCGGTTTTCCCGGTAATCCGTATTTGGT (site GTGCAGGCTAC) | 0.602
34 | GTGCAAGCATGGACCGGTTTTCCCGGTAATCCGTATTTGGT (site GTGCATGCTAC) | 0.222
35 | GTGCAGGCATGGACCGGTTTTCCCGGTAATCCGTATTTGTC (site GTGCAGGCTGA) | 2.44
36 | GTGCATCCATGGACCGGTTTTCCCGGTAATCCGTATTTGCC (site GTGCATCCTGG) | 0.749
37 | GTGCATCCATGGACCGGTTTTCCCGGTAATCCGTATTTGGT (site GTGCATACTAC) | 0.0234
38 | GTGCATCCATGGACCGGTTTTCCCGGTAATCCGTATTTGGT (site GTGCATCCTAC) | 0.56
39 | GTGCATCCATGGACCGGTTTTCCCGGTAATCCGTATTTGGT (site GTGCATGCTAC) | 0
40 | GTGCATCCATGGACCGGTTTTCCCGGTAATCCGTATTTGGT (site GTGCATTCTAC) | 0.438
41 | GTGCATGCATGGACCGGTTTTCCCGGTAATCCGTATTTGAT (site GTGCATGCTAA) | 0.00938
42 | GTGCATGCATGGACCGGTTTTCCCGGTAATCCGTATTTGAT (site GTGCATGCTAC) | 0.265
43 | GTGCATGCATGGACCGGTTTTCCCGGTAATCCGTATTTGAT (site GTGCATGCTAG) | 0.649
44 | GTGCATGCATGGACCGGTTTTCCCGGTAATCCGTATTTGAT (site GTGCATGCTAT) | 2.34
45 | GTGCATGCATGGACCGGTTTTCCCGGTAATCCGTATTTGGG (site GTGCATGCTAC) | 0.00412
46 | GTGCATGCATGGACCGGTTTTCCCGGTAATCCGTATTTGGG (site GTGCATGCTCC) | 0.746
47 | GTGCATGCATGGACCGGTTTTCCCGGTAATCCGTATTTGGG (site GTGCATGCTGC) | 0
48 | GTGCATGCATGGACCGGTTTTCCCGGTAATCCGTATTTGGG (site GTGCATGCTTC) | 0.0162
49 | GTGCATGCATGGACCGGTTTTCCCGGTAATCCGTATTTGTT (site GTGCATGCTAA) | 2.04
50 | GTGCATGCATGGACCGGTTTTCCCGGTAATCCGTATTTGTT (site GTGCATGCTAC) | 0.0189
51 | GTGCATGCATGGACCGGTTTTCCCGGTAATCCGTATTTGTT (site GTGCATGCTAG) | 1.48
52 | GTGCATGCATGGACCGGTTTTCCCGGTAATCCGTATTTGTT (site GTGCATGCTAT) | 1.31
